Reference: patent US5215986A, “5-hydroxy-2-pyrimidinylmethylene oxaza heterocycles” (Warner-Lambert Company, priority 1992, dated 1993)

What was measured:
[1] = test system: 5-Lipoxygenase; experiment: ARBL whole cell 5-lipoxygenase assay (LTB4 formation in RBL-1 cells); format: cell-based, rat; conditions: 10 μm concentration, A23187 stimulated, LTB4 by RIA
Description: (§1) ARBL/ARBC Whole Cell 5-Lipoxygenase and Cyclooxygenase Assays The rat basophilic leukemia cell line (RBL 1) was obtained from the American Type Culture Collection (Rockville, Md.). Radioimmunoassay (RIA) kits of LTB4 and PGF2α were obtained from Amersham (Arlington Heights, Ill.) and Seragen (Boston, Mass.), respectively. RBL-1 cells are grown in suspension culture in Eagle's minimum essential medium supplemented with 12% fetal bovine serum at 37° C. in an incubator supplied with air 5% carbon dioxide. Cells are harvested by centrifugation. They are washed with cold phosphate buffered saline pH 7.4 (PBS; NaCl, 7.1 g; Na2 HPO4, 1.15 g; KH2 PO4, 0.2 g; and KCl, 0.2 g/l). Cells are finally suspended in PBS containing 1.0 mM calcium at a density of 2×10^6 cells/ml. Cells are incubated with and without test agent (in DMSO) (1% DMSO is without effect on arachidonic acid metabolism) for ten minutes at room temperature. Calcium ionophore A23187 (5 μM) is added and cells are incubated for seven minutes at 37° C. The reaction is stopped by chilling the tubes on ice for ten minutes. Cells are separated by centrifugation and the supernatant is stored at -20°. Aliquots (100 μl) are analyzed for LTB4 and PGF2α using radioimmunoassay kits as provided by the supplier. […]

[2] = test system: Cyclooxygenase; experiment: ARBC whole cell cyclooxygenase assay (PGF2α formation in RBL-1 cells); format: cell-based, rat; conditions: 10 μm, A23187 stimulated, PGF2α by RIA
Description: as §1

CN1OCC/C(=C\c2nc(C(C)(C)C)c(O)c(C(C)(C)C)n2)C1=O [(E)-4-[[4,6-Bis(1,1-dimethylethyl)-5-hydroxy-2-pyrimidinyl]methylene]tetrahydro-2-methyl-2H-1,2-oxazin-3-one]
inhibition for ARBL [1]: 84% | inhibition for ARBC [2]: 88%
